Reference: article PMC6751662, “Pharmacological and functional similarities of the human neuropeptide Y system in C. elegans challenges phylogenetic views on the FLP/NPR system” (Cell Communication and Signaling : CCS, 2019)
Like-named read-outs stand apart in the source and are kept apart here. Ends that are not written are not given here.

Legend:
Assay type in all cases: cell-based, C. elegans
NPR-6 = test: cAMP reporter gene assay, Gi/o (inhibition of forskolin-induced cAMP), NPR-6; conditions: for cAMP, x-fold of forskolin (mean), NPR-6: 1 µM forskolin set to 1.00, transiently transfected HEK293 cells, mean of at least three independent experiments; for cAMP assay Gi, NPR-6: 4 h, lower = higher Gi/o activity, transfected HEK293, CRE-luciferase, mean of >=3 independent experiments
Experimental: (§1) Activation of Gs and Gi/o was assessed with a cAMP reporter gene assay. HEK293 cells grown to 70–80% confluency in 6-well plates were transiently co-transfected with vectors encoding the receptor and the cAMP reporter gene plasmid pGL4.29 [luc2P/CRE/Hygro] (Promega; 4 μg total, 1:1 ratio) using Metafectene Pro (3 μl/μg DNA; Biontex) following the manufacturer’s instructions. 16 h post transfection, the cells were seeded into white 384-well plates at a density of 20,000 cells/well. On the next day, the medium was removed and the cells were stimulated with 20 μl of peptide solution (or forskolin as positive control) in serum-free DMEM for 4 h. For measuring Gi/o activity, the peptide solutions additionally contained 1 μM forskolin to elevate cellular cAMP levels. After incubation, the luciferase substrate OneGlo in lysis buffer (Promega) was added and the luminescence was measured in a microplate reader Tecan Spark (Tecan). Data were analyzed with GraphPad Prism 5.03 and are shown as fold of basal or fold of forskolin in case of Gαi/o activity.
(§2) For in vitro activation, data is presented as mean ± SEM of at least three independent experiments conducted in technical triplicate. […] For the C. elegans NPRs, we considered the strongest response elicited by any of the peptides downstream of a particular receptor as the receptor’s maximal signal. This may or may not be the biological maximum that can be reached by the ‘true’ endogenous agonist. For the human receptors, the response to the established endogenous agonist reflected the maximal signal.

NPR-1 = target: T1, NPR-1 (Caenorhabditis elegans, UniProt Q18534); test: cAMP reporter gene assay, Gi/o (inhibition of forskolin-induced cAMP), NPR-1; parameters: host or cells: HEK293; conditions: for cAMP, x-fold of forskolin (mean), NPR-1: inhibition of cAMP production induced by 1 µM forskolin (set to 1.00), transiently transfected HEK293 cells, mean of at least three independent experiments; for cAMP, x-fold of forskolin (mean), NPR-1 / cAMP assay Gi, NPR-1: lower = higher Gi/o activity; for cAMP assay Gi, NPR-1: 4 h, transfected HEK293, CRE-luciferase, mean of >=3 independent experiments; for Emax: HEK293, read-out: Emax ± SEM [%]
T1 sequence (Q18534 1-457): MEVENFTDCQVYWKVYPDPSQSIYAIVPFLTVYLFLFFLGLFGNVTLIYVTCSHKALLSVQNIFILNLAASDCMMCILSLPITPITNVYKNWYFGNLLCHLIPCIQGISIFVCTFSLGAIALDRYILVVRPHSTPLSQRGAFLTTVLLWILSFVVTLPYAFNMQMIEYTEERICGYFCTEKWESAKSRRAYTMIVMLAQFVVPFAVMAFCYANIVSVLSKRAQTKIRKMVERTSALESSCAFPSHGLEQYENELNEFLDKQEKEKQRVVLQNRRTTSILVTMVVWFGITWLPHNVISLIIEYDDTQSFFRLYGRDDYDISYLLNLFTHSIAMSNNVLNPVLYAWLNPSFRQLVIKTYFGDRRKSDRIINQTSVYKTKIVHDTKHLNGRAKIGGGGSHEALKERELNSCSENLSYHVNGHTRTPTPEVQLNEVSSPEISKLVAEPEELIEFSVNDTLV
Experimental: as §1, §2

NPR-5b = target: T2, NPR-5b (Caenorhabditis elegans, UniProt Q6F3C9); test: cAMP reporter gene assay, Gi/o (with forskolin), NPR-5b; parameters: Emax: unit not given here; conditions: for cAMP, x-fold of forskolin (mean), NPR-5b: 1 µM forskolin set to 1.00, values > 1 = cAMP stimulation, mean of at least three independent experiments; for cAMP, x-fold of forskolin (mean), NPR-5b / Emax / EC50: transiently transfected HEK293 cells; for cAMP assay Gi, NPR-5b: 4 h, transfected HEK293, CRE-luciferase, increase consistent with Gs coupling, mean of >=3 independent experiments; for Emax / EC50: NPR-5b; for Emax: forskolin (1 µM) set to 1.00, increase of cAMP, mean ± SEM of at least three independent experiments, SEM; for EC50: full concentration-response curve, with 1 µM forskolin, increase of cAMP, at least three independent experiments
T2 sequence (Q6F3C9 1-433): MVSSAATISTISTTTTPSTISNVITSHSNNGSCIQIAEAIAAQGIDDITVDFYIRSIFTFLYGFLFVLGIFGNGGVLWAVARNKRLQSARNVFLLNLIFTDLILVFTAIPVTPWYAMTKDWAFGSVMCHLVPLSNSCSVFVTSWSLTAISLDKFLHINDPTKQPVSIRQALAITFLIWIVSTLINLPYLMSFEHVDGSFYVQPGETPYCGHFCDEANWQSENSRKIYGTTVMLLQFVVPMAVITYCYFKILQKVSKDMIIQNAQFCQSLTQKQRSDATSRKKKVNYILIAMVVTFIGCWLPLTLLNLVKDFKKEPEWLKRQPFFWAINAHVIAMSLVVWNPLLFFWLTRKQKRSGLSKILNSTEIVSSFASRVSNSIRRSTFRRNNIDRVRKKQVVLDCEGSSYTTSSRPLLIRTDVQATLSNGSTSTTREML
Experimental: as §1, with “(Tecan).” for “(Tecan). Data were analyzed with GraphPad Prism 5.03 and are shown as fold of basal or fold of forskolin in case of Gαi/o activity.”
as §2

NPR-3 = target: T3, NPR-3 (Caenorhabditis elegans, UniProt P90745); test: cAMP reporter gene assay, Gi/o (inhibition of forskolin-induced cAMP), NPR-3; conditions: for cAMP, x-fold of forskolin (mean), NPR-3: 1 µM forskolin set to 1.00, transiently transfected HEK293 cells, mean of at least three independent experiments; for cAMP assay Gi, NPR-3: 4 h, lower = higher Gi/o activity, transfected HEK293, CRE-luciferase, mean of >=3 independent experiments; for Emax: HEK293, read-out: Emax ± SEM [%]
T3 construct: expressed in transfected cells; host or cells: HEK293
T3 sequence (P90745 1-376): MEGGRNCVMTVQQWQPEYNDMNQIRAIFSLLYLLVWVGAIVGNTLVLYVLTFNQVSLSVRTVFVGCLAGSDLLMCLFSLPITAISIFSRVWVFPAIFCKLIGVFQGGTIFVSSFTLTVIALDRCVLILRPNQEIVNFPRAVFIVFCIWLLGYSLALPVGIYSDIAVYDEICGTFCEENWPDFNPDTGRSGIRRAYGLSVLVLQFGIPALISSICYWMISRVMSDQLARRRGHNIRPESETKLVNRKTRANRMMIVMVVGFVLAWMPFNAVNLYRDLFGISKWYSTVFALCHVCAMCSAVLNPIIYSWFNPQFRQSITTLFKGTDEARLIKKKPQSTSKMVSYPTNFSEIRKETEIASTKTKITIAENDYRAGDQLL
Experimental: as §1, §2

[1] = 0.1 µM peptide + 1 µM forskolin (set to 1.00)
[2] = 10 µM peptide + 1 µM forskolin (set to 1.00)

| Substance | cAMP, x-fold of forskolin (mean), NPR-6 (NPR-6; 0.1 µM peptide) | cAMP, x-fold of forskolin (mean), NPR-6 (NPR-6; 10 µM peptide) | cAMP, x-fold of forskolin (mean), NPR-1 (NPR-1; 0.1 µM peptide) | cAMP, x-fold of forskolin (mean), NPR-1 (NPR-1; 10 µM peptide) | cAMP, x-fold of forskolin (mean), NPR-5b (NPR-5b; 0.1 µM peptide) | cAMP, x-fold of forskolin (mean), NPR-5b (NPR-5b; 10 µM peptide) | cAMP, x-fold of forskolin (mean), NPR-3 (NPR-3; 0.1 µM peptide) | cAMP, x-fold of forskolin (mean), NPR-3 (NPR-3; 10 µM peptide) | Emax (NPR-1; SEM) [%] | Emax (NPR-5b) | also measured |
| --- | --- | --- | --- | --- | --- | --- | --- | --- | --- | --- | --- |
| AGSDPNFLRF-NH2 [FLP-1-2, C. elegans FMRFamide-like peptide, C-terminally amidated, synthesized by SPPS] | 0.94 x-fold of forskolin | 0.29 x-fold of forskolin | 0.98 x-fold of forskolin | 0.89 x-fold of forskolin | 1.02 x-fold of forskolin | 1.72 x-fold of forskolin | 0.87 x-fold of forskolin | 1.02 x-fold of forskolin |  |  |  |
| APKPKFIRF-NH2 [FLP-5-1, C. elegans FMRFamide-like peptide, C-terminally amidated, synthesized by SPPS] | 0.84 x-fold of forskolin | 1.01 x-fold of forskolin | 0.54 x-fold of forskolin | 0.50 x-fold of forskolin | 0.91 x-fold of forskolin | 1.96 x-fold of forskolin | 0.66 x-fold of forskolin | 0.86 x-fold of forskolin |  |  | cAMP assay Gi, NPR-6 (NPR-6; [1]): 0.85 x-fold of forskolin; cAMP assay Gi, NPR-6 (NPR-6; [2]): 1.01 x-fold of forskolin; cAMP assay Gi, NPR-1 (NPR-1; [1]): 0.58 x-fold of forskolin; cAMP assay Gi, NPR-1 (NPR-1; [2]): 0.53 x-fold of forskolin; cAMP assay Gi, NPR-5b (NPR-5b; [1]): 0.92 x-fold of forskolin; cAMP assay Gi, NPR-5b (NPR-5b; [2]): 1.90 x-fold of forskolin; cAMP assay Gi, NPR-3 (NPR-3; [1]): 0.68 x-fold of forskolin; cAMP assay Gi, NPR-3 (NPR-3; [2]): 0.87 x-fold of forskolin |
| APLEGFEDMSGFLRTIDGIQKPRF-NH2 [FLP-33, NPY-like C. elegans FLP with C-terminal RxRF/Ya signature] | 0.86 x-fold of forskolin | 0.91 x-fold of forskolin | 0.72 x-fold of forskolin | 0.82 x-fold of forskolin | 0.79 x-fold of forskolin | 0.85 x-fold of forskolin | 0.77 x-fold of forskolin | 0.85 x-fold of forskolin |  |  |  |
| APLEPVYPGDNATPEQMAQYAADLRRYINMLTRPRY-NH2 [PP, human pancreatic polypeptide, reference compound] | 1.01 x-fold of forskolin | 1.00 x-fold of forskolin | 1.21 x-fold of forskolin | 1.49 x-fold of forskolin | 0.86 x-fold of forskolin | 0.96 x-fold of forskolin | 1.02 x-fold of forskolin | 1.25 x-fold of forskolin |  |  |  |
| ASPSFIRF-NH2 [FLP-4-2, C. elegans FMRFamide-like peptide, C-terminally amidated, synthesized by SPPS] | 0.86 x-fold of forskolin | 0.72 x-fold of forskolin | 0.77 x-fold of forskolin | 0.76 x-fold of forskolin | 0.90 x-fold of forskolin | 1.82 x-fold of forskolin | 0.94 x-fold of forskolin | 0.83 x-fold of forskolin |  |  |  |
| EASAFGDIIGELKGKGLGGRMRF-NH2 [FLP-27, NPY-like C. elegans FLP with C-terminal RxRF/Ya signature] | 1.02 x-fold of forskolin | 0.88 x-fold of forskolin | 0.91 x-fold of forskolin | 0.71 x-fold of forskolin | 0.88 x-fold of forskolin | 1.61 x-fold of forskolin | 0.84 x-fold of forskolin | 1.15 x-fold of forskolin |  |  |  |
| GLGPRPLRF-NH2 [FLP-21] |  |  |  |  |  |  |  |  | -0.97 ± 0.15 | 3.8 ± 0.26 | EC50 (NPR-1): 0.97 nM; EC50 (NPR-5b): 432 nM; Emax (NPR-3; SEM): -0.59 ± 0.26% |
| RGPSGPLRF-NH2 [FLP-15-2] |  |  |  |  |  |  |  |  | -0.92 ± 0.1 | 3.28 ± 1.7 | EC50 (NPR-1; SEM): 25.1 nM; EC50 (NPR-5b): 6650 nM; Emax (NPR-3; SEM): -0.8 ± 0.09%; EC50 (NPR-3; SEM): 50.1 nM |
| SEVPGVLRF-NH2 [FLP-18-5] |  |  |  |  |  |  |  |  | -0.53 ± 0.2 | 3.6 ± 0.22 |  |
